Values joined by “and” are separate entries in the source; they are usually repeats but may differ in a detail not shown here. Equal values may be shown once.

The test system of data set [1] is DUX4. Briefly: DUX4 expression downregulation by kinase family inhibitors (Table 1). The data set is classed as cell-based. The conditions noted are these: for EC50: DUX4 reduction; for Quantitation % of DUX4 reduction @the lowest significant [C]: at the lowest significant concentration; for lowest significant [C]: concentration in brackets at which the % DUX4 reduction is given.

For data set [2], the system named is Genea049 FSHD hESC-SkM. Briefly: FSHD hESC-SkM immunocytochemistry, Myosin Heavy Chain and nuclei (myogenic inhibition/toxicity). The data set is classed as cell-based, human. As for the experimental part:
(§1) FIG. 6 provides an example of a screening and culturing workflow for hESC-SkM assays. At Day 0, hESC-derived myoblasts are thawed into a 96-well plate in myoblast medium (Genea BioCells). On Day 2, the medium is replaced with new myoblast medium containing 1.15 μM. Decitabine. […] On Day 7, the myotubes are analyzed. For example, the myotubes may be analyzed for MHC expression or DUX4 expression.
(§2) Genea049 FSHD-affected human Embryonic Stem Cells (hESCs) were differentiated using Genea's myogenic differentiation protocol (Caron et 2015) to the myoblast stage and cryopreserved. Frozen myoblasts were resuscitated and 4500 cells were plated into each well of a 96-well collagen I coated tissue culture plate in myoblast medium. After two days of cell growth medium was changed to 100 μL per well myoblast medium containing 1.15 μM Decitabine. […] Cells were allowed to differentiate to myotubes for four additional days then were fixed and analyzed for quantification of DUX4 expression, Myosin Heavy Chain expression, and nuclei number. Triplicate wells of each condition were averaged.
as §2, with “et al.,” for “et”, “number by high-content imaging.” for “number.”

Data set [3] concerns DUX4. Briefly: FSHD hESC-SkM immunocytochemistry, DUX4 expression. The format is cell-based, human. The conditions noted are these: Genea049 hESC-SkM. How it is done:
as §1, §2
as §2, with “et al.,” for “et”, “number by high-content imaging.” for “number.”

Consider `Cc1ccc(NC(=O)c2ccc(CN3CC[C@H](N(C)C)C3)c(C(F)(F)F)c2)cc1Nc1nccc(-c2cncnc2)n1` [Bafetinib], for which, in data set [1], the EC50 (as a rule, the midpoint of the concentration-response curve) stood at 132 nM; the “Quantitation % of DUX4 reduction @the lowest significant [C]” value is 67.90%; the “lowest significant [C]” value is 2.08 µM.
With `COc1cc(Nc2c(C#N)cnc3cc(OCCCN4CCN(C)CC4)c(OC)cc23)c(Cl)cc1Cl` [Bosutinib], in data set [1], the “Quantitation % of DUX4 reduction @the lowest significant [C]” value stood at 70.58% and the “lowest significant [C]” value stood at 3 µM.
As to `Cc1ncc(NC(=O)c2ccc(CN3CCN(C)CC3)c(C(F)(F)F)c2)cc1Nc1nccc(-c2cccnc2)n1` [Flumatinib], in data set [1], the EC50 was 82 nM, the “Quantitation % of DUX4 reduction @the lowest significant [C]” value is on record as 76.09% and the “lowest significant [C]” value was 2.08 µM.
Turning to `NS(=O)(=O)OC[C@@H]1C[C@@H](n2ccc3c(N[C@H]4CCc5ccccc54)ncnc32)C[C@@H]1O` [GBC0772, MLN4924], in data set [2] (10 nM-3 μM, four days), the “Myosin Heavy Chain expression and nuclei count, dose curve” value was “decreased Myosin Heavy Chain expression and nuclei count”. Further, the “Myosin Heavy Chain expression and nuclei count” value in data set [2] (100 nM, four days of culture) is “decreased Myosin Heavy Chain expression and nuclei count”. The DUX4 expression entry in data set [3] (100 nM, four days of culture during myotube formation) was “decreased DUX4 expression”. In addition, in data set [3] (six concentration points 10 nM-3 μM, four days), the “DUX4 expression, dose curve” value is reported as “dose-dependent decreased DUX4 expression”.
As to `Cc1ccc(NC(=O)c2ccc(CN3CCN(C)CC3)cc2)cc1Nc1nccc(-c2cccnc2)n1` [Imatinib], the “Quantitation % of DUX4 reduction @the lowest significant [C]” value in data set [1] was found to be 61.13%.
As to `Cc1ccc(NC(=O)c2ccc(CN3CC[C@H](N(C)C)C3)c(C(F)(F)F)c2)cc1Nc1ncc(-c2cncnc2)cn1` [Lyn-IN-1], in data set [1], the 50% effective concentration (EC50) worked out at 175 nM, the “Quantitation % of DUX4 reduction @the lowest significant [C]” value came to 70.73% and the “lowest significant [C]” value amounted to 0.88 µM.
In the case of `Cc1cn(-c2cc(NC(=O)c3ccc(C)c(Nc4nccc(-c5cccnc5)n4)c3)cc(C(F)(F)F)c2)cn1` [Nilotinib], in data set [1], the “Quantitation % of DUX4 reduction @the lowest significant [C]” value came to 76.71% and the “lowest significant [C]” value is 5 µM.
Regarding `CC(C)(C)n1nc(-c2ccc(Cl)cc2)c2c(N)ncnc21` [PP2], in data set [1], the 50% effective concentration (EC50) is 153 nM and 287 nM; the “Quantitation % of DUX4 reduction @the lowest significant [C]” value was 41.77% and 66.61%.

Values taken from patent US11806343B2, “Inhibitors of DUX4 induction for regulation of muscle function” (Sonic Master Limited, priority 2017, dated 2023).
